{"source": "patent US20240417410A1", "about": "“TRICYCLIC COMPOUNDS FOR THE TREATMENT OF CANCER” (Hoffmann-La Roche Inc., priority 2023, published 2024)", "key": {"[1]": {"assay": "Single dose pharmacokinetics (PK) study in female BALB/c mice", "format": "in vivo, mouse", "details": "female, BALB/c, mouse, plasma, female BALB/c mice", "method": "The purpose of this study was to determine the pharmacokinetics of selected compounds following single intravenous bolus or oral gavage administration in female BALB/c mice. Briefly, two groups of female BALB/c mice (available from Shanghai Lingchang Biotechnology Co., Ltd) (N=3/group) were treated with a single dose of compound intravenously at 3 mg/kg (IV) or orally at 30 mg/kg (PO). Blood samples were collected at 5 min (only for IV), […], 30 min, 1 h, 2 h, 4 h, 7 h and 24 h post-dose. Blood samples were placed on ice until centrifugation to obtain plasma samples. The concentration of compound in plasma samples was determined using LC-MS/MS method. The pharmacokinetic parameters were calculated by non-compartmental analysis."}, "[2]": {"molecular_target": "hERG potassium channel (Homo sapiens (Human), UniProt Q12809)", "sequence (Q12809 whole entry)": "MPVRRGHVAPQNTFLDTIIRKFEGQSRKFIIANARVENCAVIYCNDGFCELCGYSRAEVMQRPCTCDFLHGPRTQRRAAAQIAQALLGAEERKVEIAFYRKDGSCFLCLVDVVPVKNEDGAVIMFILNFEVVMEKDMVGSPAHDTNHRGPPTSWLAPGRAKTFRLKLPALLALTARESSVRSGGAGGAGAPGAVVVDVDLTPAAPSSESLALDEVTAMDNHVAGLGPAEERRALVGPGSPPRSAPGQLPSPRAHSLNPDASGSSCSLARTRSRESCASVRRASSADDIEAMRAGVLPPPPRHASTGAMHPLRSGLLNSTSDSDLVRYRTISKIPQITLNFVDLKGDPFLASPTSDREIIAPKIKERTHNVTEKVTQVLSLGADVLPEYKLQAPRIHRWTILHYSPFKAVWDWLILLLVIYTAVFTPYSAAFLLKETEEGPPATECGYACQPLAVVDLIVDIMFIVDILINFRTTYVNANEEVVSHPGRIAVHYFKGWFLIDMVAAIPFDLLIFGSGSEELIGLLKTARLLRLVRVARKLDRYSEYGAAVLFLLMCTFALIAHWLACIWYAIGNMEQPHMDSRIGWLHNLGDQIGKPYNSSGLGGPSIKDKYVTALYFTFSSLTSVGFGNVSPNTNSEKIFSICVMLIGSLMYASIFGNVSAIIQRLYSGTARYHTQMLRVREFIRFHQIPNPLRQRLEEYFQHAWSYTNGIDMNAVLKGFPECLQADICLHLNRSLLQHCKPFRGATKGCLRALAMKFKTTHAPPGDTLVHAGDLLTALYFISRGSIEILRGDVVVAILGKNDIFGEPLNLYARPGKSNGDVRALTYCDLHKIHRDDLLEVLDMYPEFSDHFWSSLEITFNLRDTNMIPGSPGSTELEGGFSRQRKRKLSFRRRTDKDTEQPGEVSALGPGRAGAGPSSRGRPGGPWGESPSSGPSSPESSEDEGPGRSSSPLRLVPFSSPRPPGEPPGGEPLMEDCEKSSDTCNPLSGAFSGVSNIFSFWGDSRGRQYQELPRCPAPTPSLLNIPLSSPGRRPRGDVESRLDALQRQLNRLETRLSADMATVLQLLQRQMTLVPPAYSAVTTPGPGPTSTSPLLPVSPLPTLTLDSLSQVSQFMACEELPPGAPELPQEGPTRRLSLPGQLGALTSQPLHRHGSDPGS", "assay": "hERG potassium channel assay (manual patch clamp, CHO cells)", "format": "cell-based", "details": "34° C., manual patch, CHO cells", "method": "The purpose of the test was to screen compounds for the activity on hERG channels as a non-clinical cardiac safety evaluation.\nAdvanced hERG experiments were performed at near-physiological temperature (34° C.) by HEKA EPC10 manual patch system (heka elektronik, EPC10 amplifier). The CHO cells (B′SYS GmbH) stably transfected hERG channel were initially held at −80 mV, depolarized to voltages between −40 mV (100 ms) to 20 mV (500 ms) to activate the hERG outward currents, and then repolarized to −40 mV (500 ms) to record the hERG tail currents, with an interpulse interval of 15s. The recording environment included: Extracellular solution (in mM): 150 NaCl, 4 KCl, 1.2 CaCl2), 1 MgCl2 and 10 HEPES; pH adjusted to 7.2-7.4 with 5 M NaOH; Intracellular solution (in mM): 125 KCl, 10 NaCl, 5 EGTA, 10 HEPES, 0.1 Na2GTP and 5 MgATP; pH adjusted to 7.2 with 1 M KOH. Current inhibitions in the presence of more than 4 concentrations in quadruplicate were used to fit hERG IC50 by Graphpad prism V8.0."}, "[3]": {"molecular_target": "WT KRAS-BRAF complex (Homo sapiens (Human), UniProt P01116+P62937)", "sequence (P01116-2 whole entry, looked up)": "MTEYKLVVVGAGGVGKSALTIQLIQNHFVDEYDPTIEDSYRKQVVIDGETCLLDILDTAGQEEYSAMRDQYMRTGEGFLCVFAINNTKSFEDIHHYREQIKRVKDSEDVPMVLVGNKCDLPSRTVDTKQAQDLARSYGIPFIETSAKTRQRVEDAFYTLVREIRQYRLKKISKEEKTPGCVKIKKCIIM", "sequence (P62937 whole entry, looked up)": "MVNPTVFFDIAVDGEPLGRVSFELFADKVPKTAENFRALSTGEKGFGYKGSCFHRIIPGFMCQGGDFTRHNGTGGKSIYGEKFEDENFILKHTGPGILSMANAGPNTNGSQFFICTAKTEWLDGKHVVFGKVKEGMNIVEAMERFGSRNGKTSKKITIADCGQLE", "assay": "WT KRAS-BRAF with CYPA interaction assay (TR-FRET)", "format": "biochemical", "details": "WT KRAS", "method": "(§1) In this example, TR-FRET was used to measure the compound or compound-CYPA dependent disruption of the KRAS G12V-BRAF complex to assess inhibition efficacy. The IC50 ratio between WT KRAS/HRAS/NRAS and KRAS G12V mutant was calculated as selective index, which indicated tolerability and safety profile. Disruption of WT KRAS/HRAS/NRAS-BRAF complex by compounds was detected respectively. In assay buffer containing 25 mM HEPES (PH-7.4,4-(2-hydroxyethyl)-1-piperazineethanesulfonic acid, Thermo, 15630080), 0.002% Tween20, 0.1% BSA, 100 mM NaCl, 5 mM MgCl2, 10 μM GMPPNP (Guanosine 5′-[β,γ-imido]triphosphate trisodium salt hydrate, Sigma, G0635), tagless CYPA and GMPPNP loaded 6His-RAS proteins, and GST-BRAF^RBD were mixed in a well of a 384-well assay plate at final concentrations of 50 nM, 6.25 nM and 1 nM, respectively. Compound was present in plate wells as a 16-point 3-fold dilution series starting at a final concentration of 10 μM and incubated for 3 hours. A mixture of MAb Anti-6His-XL665 (Cisbio, 61HISXLB) and Mab anti-GST-TB cryptate (Cisbio, 61GSTTLB) was then added at a final concentration of 6.67 nM and 0.21 nM, respectively, and the plate was incubated for an additional 1.5 hours. TR-FRET signal was read on a PHERstar FSX microplate reader (Ex320 nm, Em 665/615 nm). Compounds that facilitate disruption of the RAS-BRAF complex were identified as those eliciting a decrease in the TR-FRET ratio relative to DMSO control wells."}, "[4]": {"molecular_target": "WT HRAS-BRAF complex (Homo sapiens (Human), UniProt P01112+P62937)", "sequence (P01112 whole entry, looked up)": "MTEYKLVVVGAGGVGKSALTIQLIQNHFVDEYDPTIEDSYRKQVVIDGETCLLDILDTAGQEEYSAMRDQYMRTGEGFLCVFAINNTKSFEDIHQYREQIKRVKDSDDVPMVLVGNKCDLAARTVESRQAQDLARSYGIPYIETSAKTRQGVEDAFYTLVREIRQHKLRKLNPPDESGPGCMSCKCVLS", "sequence (P62937 whole entry, looked up)": "as the sequence (P62937 whole entry, looked up) above", "assay": "WT HRAS-BRAF with CYPA interaction assay (TR-FRET)", "format": "biochemical", "details": "WT HRAS", "method": "as §1"}, "[5]": {"molecular_target": "WT NRAS-BRAF complex (Homo sapiens (Human), UniProt P01111+P62937)", "sequence (P01111 whole entry, looked up)": "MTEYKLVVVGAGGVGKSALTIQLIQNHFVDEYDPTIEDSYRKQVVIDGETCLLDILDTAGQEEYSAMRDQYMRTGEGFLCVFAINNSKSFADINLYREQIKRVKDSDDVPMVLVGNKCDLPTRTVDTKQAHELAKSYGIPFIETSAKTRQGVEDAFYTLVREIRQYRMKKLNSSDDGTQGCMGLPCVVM", "sequence (P62937 whole entry, looked up)": "as the sequence (P62937 whole entry, looked up) above", "assay": "WT NRAS-BRAF with CYPA interaction assay (TR-FRET)", "format": "biochemical", "details": "WT NRAS", "method": "as §1"}, "[6]": {"molecular_target": "KRAS G12V-BRAF complex (Homo sapiens (Human), UniProt P01116+P62937, G12V)", "sequence (P01116-2 other isoform, or with tags, fused parts or gaps G12V)": "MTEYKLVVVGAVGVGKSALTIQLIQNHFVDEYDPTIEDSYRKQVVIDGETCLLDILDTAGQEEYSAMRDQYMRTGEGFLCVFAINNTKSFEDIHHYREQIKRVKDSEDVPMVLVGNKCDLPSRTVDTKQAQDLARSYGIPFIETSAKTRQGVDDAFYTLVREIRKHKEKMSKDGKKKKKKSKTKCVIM", "sequence (P62937 whole entry)": "as the sequence (P62937 whole entry, looked up) above", "assay": "KRAS G12V-BRAF with CYPA interaction assay (TR-FRET, selectivity test, Example 132)", "format": "biochemical", "method": "as §1"}, "[7]": {"test_system": "human hepatocytes", "assay": "Human hepatocyte stability assay", "format": "in vitro ADME", "details": "1 μM compound, human hepatocytes 1×10^6 cells/mL", "method": "The hepatocyte stability assay measures the rate of disappearance of a compound from incubations with cryopreserved suspension hepatocytes from human. Positive controls, including Midazolam, Raloxifene and Dextromethorphan, are included in every experiment. Incubations consist of 1 μM tested compound and suspension of human hepatocytes (1×10^6 cells/mL) in supplemented Williams' E Medium with 10% FBS and 0.5% Penicillin-streptomycin. The hepatocyte suspension was incubated with intermittent shaking 900 rpm at 37° C., in a 5% CO2 incubator. The reaction was stopped by adding methanol containing internal standard (2 μM Tolbutamide) at 2, 10, 20, 40, 60 and 120 minutes after compound addition, depletion of the parent compound was monitored by LC-MS/MS analysis."}}}
{"smiles": "CCn1c(-c2cc(N3CCN(C)CC3)cnc2[C@H](C)OC)c2c3cc(ccc31)-c1csc(n1)C[C@H](NC(=O)[C@H]1[C@H](C)[C@@H]1C)C(=O)N1CCC[C@H](N1)C(=O)OCC(C)(C)C2", "note": "[Example A252, reference compound]", "values": [{"measurement": "clearance", "setting": "[1]; iv, 3 mg/kg", "value": 37.8, "unit": "mL/min/kg"}, {"measurement": "AUC(0-t)", "setting": "[1]; po, 30 mg/kg", "value": 14600, "unit": "ng·h/mL"}, {"measurement": "Cmax", "setting": "[1]; po, 30 mg/kg, po, read-out: Cmax", "value": 2440, "unit": "ng/mL"}, {"measurement": "IC50", "setting": "[2]", "value": 11, "unit": "µM"}, {"measurement": "IC20", "setting": "[2]; human, CHO cells stably transfected with hERG channel", "value": 3000, "unit": "nM"}, {"measurement": "IC50", "setting": "[3]", "value": 18, "unit": "nM"}, {"measurement": "IC50", "setting": "[4]", "value": 23, "unit": "nM"}, {"measurement": "IC50", "setting": "[5]", "value": 19, "unit": "nM"}, {"measurement": "IC50", "setting": "[6]", "value": 9, "unit": "nM"}, {"measurement": "Hepatic clearance (Human)", "setting": "[7]", "value": 9.2, "unit": "mL/min/kg"}]}
